Source: US6030975A, “Carboxylic acid derivatives, their preparation and use in treating cancer” (priority 1997, dated 2000)

Tests used:
DU-145 prostate tumor = experiment: DU-145 Model: human prostate (HTB 81) tumor fragments implanted subcutaneously in nude mice; type: in vivo
Experimental: For example, human tumors which have been grown in nude mice can be transplanted into new recipient mice using tumor fragments which are about 50 mg in size. The day of transplantation is designated as day 0. Five to fifteen days later, the mice are treated with the test compounds given as an intravenous or intraperitoneal injection, in groups of five to ten mice at each dose. Compounds are given daily for either 5, 10 or 15 days, at dosed from 0.1-1000 mg/kg of body weight.
Tumor diameters and body weights are measured periodically. Tumor mass is calculated using the diameters measured with Vernier calipers, and the formula:
(length×width2)/2=mg of tumor weight
Mean tumor weights are calculated for each treatment group relative to the untreated control tumors. The DU-145 Model is a specific example of this type of assay and is described below.
Human tumor fragments from prostate (HTB 81), which had been grown in nude mice were implanted subcutaneously via trochar, in the dorsal side of new recipient nude mice, as is well known in the art. The day of implantation is designated as day 0.
Treatment was commenced on day 11 post implantation using Compound I-1 of Table I. There were 6 mice in each treatment group with the mode of administration and amounts administered (mg/kg of body weight) described in Table XI. Compound I-1 was administered once a day for 10 days commencing, as earlier stated, at day 11 post implantation (Q1D×10:11).

human ETA receptor = molecular target: T1, human ETA receptor (Homo sapiens, UniProt P25101); experiment: ETA receptor binding assay ([125I]-ET1) on membranes of CHO cells expressing cloned human ETA receptor; conditions: Table III
T1 construct: expressed in transfected cells; host or cells: CHO cells
T1 sequence (P25101 21-427): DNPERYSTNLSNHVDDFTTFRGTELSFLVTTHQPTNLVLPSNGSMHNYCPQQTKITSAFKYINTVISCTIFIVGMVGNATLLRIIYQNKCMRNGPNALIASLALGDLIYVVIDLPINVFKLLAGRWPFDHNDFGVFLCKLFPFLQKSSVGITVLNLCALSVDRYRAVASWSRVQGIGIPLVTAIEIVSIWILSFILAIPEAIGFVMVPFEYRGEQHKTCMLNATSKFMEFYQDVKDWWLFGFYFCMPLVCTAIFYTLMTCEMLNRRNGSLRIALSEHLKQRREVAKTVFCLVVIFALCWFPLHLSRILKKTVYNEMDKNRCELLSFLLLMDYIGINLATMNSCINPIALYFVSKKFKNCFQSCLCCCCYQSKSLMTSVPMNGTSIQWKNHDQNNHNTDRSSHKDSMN
Experimental: (§1) Cloned human ETA receptor-expressing CHO cells and guinea pig cerebellar membranes with >60% ETB compared with ETA receptors were used for binding studies.
The ETA receptor-expressing CHO cells were grown in F12 medium containing 10% fetal calf serum, 1% glutamine, 100 U/ml penicillin and 0.2% streptomycin (Gibco BRL, Gaithersburg, Md., USA). After 48 h, the cells were washed with PBS and incubated with 0.05% trypsin-containing PBS for 5 min. Neutralization was then carried out with F12 medium, and the cells were collected by centrifugation at 300×g. To lyze the cells, the pellet was briefly washed with lysis buffer (5 mM Tris-HCl, pH 7.4 with 10% glycerol) and then incubated at a concentration of 10^7 cells/ml of lysis buffer at 4° C. for 30 min. The membranes were centrifuged at 20,000×g for 10 min., and the pellet was stored in liquid nitrogen.
(§2) The nonspecific binding was determined using 10^-7 M ET1. After 30 min., the free and bound radioligand were separated by filtration through GF/B glass fiber filters (Whatman, England) on a Skatron cell collector (Skatron, Lier, Norway) and the filters were washed with ice-cold Tris-HCl buffer, pH 7.4 with 0.2% BSA. The radioactivity collected on the filters was quantified using a Packard 2200 CA liquid scintillation counter.
The Ki values shown in Table A were determined by non-linear regression analysis using the LIGAND program.

ETB receptor = molecular target: T2, ETB receptor (Cavia porcellus, UniProt H0VTF3); experiment: ETB receptor binding assay ([125I]-RZ3) on guinea pig cerebellar membranes; conditions: Table III
T2 construct: Guinea pig cerebella were homogenized; from tissue; host or cells: guinea pig cerebellum membranes
T2 sequence (H0VTF3 27-415): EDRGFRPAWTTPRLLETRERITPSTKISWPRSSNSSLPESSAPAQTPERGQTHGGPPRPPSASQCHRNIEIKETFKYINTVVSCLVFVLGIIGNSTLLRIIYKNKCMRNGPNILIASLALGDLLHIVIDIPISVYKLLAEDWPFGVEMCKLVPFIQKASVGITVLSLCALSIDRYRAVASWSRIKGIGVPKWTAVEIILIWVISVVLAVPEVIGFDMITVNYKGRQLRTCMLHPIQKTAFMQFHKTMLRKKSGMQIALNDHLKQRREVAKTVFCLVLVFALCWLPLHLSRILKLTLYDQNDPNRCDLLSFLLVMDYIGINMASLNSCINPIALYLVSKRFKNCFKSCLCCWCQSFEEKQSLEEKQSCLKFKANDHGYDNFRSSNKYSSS
Experimental: as §1
Guinea pig cerebella were homogenized in a Potter-Elvejhem homogenizer and membranes were obtained by differential centrifugation at 1000×g for 10 min. and repeated centrifugation of the supernatant at 20,000×g for 10 min.
as §2

## COC(=O)C(Oc1nc(OC)cc(OC)n1)C(OC)(c1ccccc1)c1ccccc1 (stereo not drawn) [Compound I-1, Methyl 2-(4,6-dimethoxy-pyrimidin-2-yloxy)-3-methoxy-3,3-diphenylpropionate]
DU-145 prostate tumor; 100 mg/kg IV, Q1Dx10:11
  Days for Tumor Weight = 1000 mg: 39.3 days
  Mean Tumor Weight (MTW) on Day 33: 561 mg
DU-145 prostate tumor; 150 mg/kg IP, Q1DX10:11
  Days for Tumor Weight = 1000 mg: 59.3 days
  Mean Tumor Weight (MTW) on Day 33: 407 mg
DU-145 prostate tumor; 150 mg/kg IV, Q1DX10:11
  Days for Tumor Weight = 1000 mg: 37.4 days
  Mean Tumor Weight (MTW) on Day 33: 793 mg
DU-145 prostate tumor; 220 mg/kg IP, Q1DX10:11
  Days for Tumor Weight = 1000 mg: 50.9 days
  Mean Tumor Weight (MTW) on Day 33: 470 mg
DU-145 prostate tumor; Day 33, 100 mg/kg IV, Q1Dx10:11
  MTW % T/C: 45.54%
DU-145 prostate tumor; Day 33, 150 mg/kg IP, Q1DX10:11
  MTW % T/C: 33.04%
DU-145 prostate tumor; Day 33, 150 mg/kg IV, Q1DX10:11
  MTW % T/C: 64.37%
DU-145 prostate tumor; Day 33, 220 mg/kg IP, Q1DX10:11
  MTW % T/C: 38.15%
DU-145 prostate tumor; all doses, IV and IP
  response to administration (reduction in the %T/C Mean Tumor Weight): all treatment groups responded

## COc1cc(OC)nc(OC(C(=O)O)C(OC)(c2ccccc2)c2ccccc2)n1 (stereo not drawn) [Compound I-2, 2-(4,6-Dimethoxy-pyrimidin-2-yloxy)-3-methoxy-3,3-diphenylpropionic acid]
Human ETA receptor
  Ki: 0.006 µM

## CCOC(c1ccccc1)(c1ccccc1)C(Oc1nc(OC)cc(OC)n1)C(=O)O (stereo not drawn) [Compound I-4]
Human ETA receptor
  Ki: 0.007 µM

## CCCOC(c1ccccc1)(c1ccccc1)C(Oc1nc(OC)cc(OC)n1)C(=O)O (stereo not drawn) [Compound I-12]
Human ETA receptor
  Ki: 0.019 µM

## COc1cc(OC)nc(OC(C(=O)O)C(OC)(c2ccc(F)cc2)c2ccc(F)cc2)n1 (stereo not drawn) [Compound I-60]
Human ETA receptor
  Ki: 0.033 µM
ETB receptor
  Ki: 0.97 µM
